Test results: patent US11331271B2, “Buccal, sublingual and intranasal delivery of fospropofol” (The Johns Hopkins University, priority 2016, dated 2022)

Test system: healthy volunteers
Assay: Human Study 2: treatment-emergent adverse events (TEAE), safety, Modified OAA/S, DSST, BIS
Format: in vivo
Details: for DSST mean change from baseline: 1 h post-treatment
Method: In human study 1, fospropofol disodium was formulated as a sterile aqueous solution at a concentration of 20 mg/mL. Each vial provided contained 20 mL of solution, suitable for intravenous injection. Fospropofol was administered as a single dose of 400 mg orally, directly into the duodenum by gastroscopy or intravenously over 10 min. In human study 2, fospropofol disodium in capsules (200 mg) or matching placebo was administered orally.
A second single ascending dose study was subsequently performed to assess the safety, tolerability, and pharmacokinetics of oral administration of fospropofol as a capsule. This was a double-blind, randomized, crossover, placebo-controlled, single ascending dose study. Ten healthy volunteers were enrolled, 6 males and 4 females between 18 and 45 years of age inclusive with a body mass index between 18 and 28 kg/m^2. Each subject received four ascending oral doses of fospropofol disodium (200, 600, 1,000 and 1,200 mg) and one of placebo. Placebo was administered randomly, in one of the five periods. Subjects stayed in the clinical research unit over 3 days per treatment for five consecutive treatments. Between treatments, there were wash-out periods of at least 6 days, during which interim safety evaluations were made to assess the safety of the subsequent higher doses. Fopropofol disodium in capsules (200 mg) or matching placebo was administered orally. Pharmacokinetic parameters, safety and pharmacodynamic effect were assessed in a manner similar to that in Study 1 described above. In addition, the digit symbol substitution test (DSST) and BIS Index (a commercially available EEG derived measure of anesthesia and sedation, Coviden, Mansfield, Mass., USA) were added as additional pharmacodynamics measures.

[1] = 200 mg oral, listed as Fospropofol
[2] = 600 mg oral, listed as Fospropofol
[3] = 1000 mg oral, listed as Fospropofol
[4] = 1200 mg oral, listed as Fospropofol

SMILES: CC(C)c1cccc(C(C)C)c1OCOP(=O)(O)O [fospropofol]
- BIS score range (200 mg): 80-98%
- TEAE EYE DISORDERS, subjects (%) (200 mg oral): (10%)
- TEAE GASTROINTESTINAL DISORDERS, events (E) (200 mg oral): 2
- TEAE GASTROINTESTINAL DISORDERS, subjects (%) (200 mg oral): (10%)
- TEAE GENERAL DISORDERS AND ADMINISTRATION SITE CONDITIONS, subjects (%) (200 mg oral): (10%)
- TEAE INFECTIONS AND INFESTATIONS, subjects (%) (200 mg oral): (10%)
- TEAE MUSCULOSKELETAL AND CONNECTIVE DISORDERS, subjects (%) (200 mg oral): (10%)
- TEAE NERVOUS SYSTEM DISORDERS, events (E) (200 mg oral): 10
- TEAE NERVOUS SYSTEM DISORDERS, subjects (%) (200 mg oral): (70%)
- TEAE RESPIRATORY THORACIC AND MEDIASTINAL DISORDERS, subjects (%) (200 mg oral): (10%)
- TEAE TOTAL, events (E) (200 mg oral): 18
- TEAE TOTAL, subjects (%) (200 mg oral): 80%
- TEAE VASCULAR DISORDERS, subjects (%) (200 mg oral): (10%)
- TEAE abdominal pain, subjects (%) (200 mg oral): (10%)
- TEAE eye irritation, subjects (%) (200 mg oral): (10%)
- TEAE feeling hot, subjects (%) (200 mg oral): (10%)
- TEAE nausea, subjects (%) (200 mg oral): (10%)
- TEAE paraesthesia oral, subjects (%) (200 mg oral): (30%)
- TEAE paraesthesia, events (E) (200 mg oral): 3
- TEAE paraesthesia, subjects (%) (200 mg oral): (20%)
- TEAE pharyngolaryngeal pain, subjects (%) (200 mg oral): (10%)
- TEAE rhinitis, subjects (%) (200 mg oral): (10%)
- TEAE sensation of heaviness, subjects (%) (200 mg oral): (10%)
- TEAE somnolence, subjects (%) (200 mg oral): 40%
- TEAE vein pain, subjects (%) (200 mg oral): (10%)
- TEAE TOTAL, subjects (%) [1]: (80%)
- TEAE somnolence, subjects (%) [1]: (10%)
- DSST mean change from baseline (200 mg): 6
- BIS score range (600 mg): 71-98%
- TEAE GASTROINTESTINAL DISORDERS, events (E) (600 mg oral): 4
- TEAE GASTROINTESTINAL DISORDERS, subjects (%) (600 mg oral): (30%)
- TEAE GENERAL DISORDERS AND ADMINISTRATION SITE CONDITIONS, events (E) (600 mg oral): 5
- TEAE GENERAL DISORDERS AND ADMINISTRATION SITE CONDITIONS, subjects (%) (600 mg oral): (40%)
- TEAE NERVOUS SYSTEM DISORDERS, events (E) (600 mg oral): 16
- TEAE NERVOUS SYSTEM DISORDERS, subjects (%) (600 mg oral): (70%)
- TEAE PSYCHIATRIC DISORDERS, subjects (%) (600 mg oral): (10%)
- TEAE REPRODUCTIVE SYSTEM AND BREAST DISORDERS, subjects (%) (600 mg oral): (10%)
- TEAE RESPIRATORY THORACIC AND MEDIASTINAL DISORDERS, subjects (%) (600 mg oral): (10%)
- TEAE TOTAL, events (E) (600 mg oral): 29
- TEAE TOTAL, subjects (%) (600 mg oral): 90%
- TEAE VASCULAR DISORDERS, subjects (%) (600 mg oral): (10%)
- TEAE abdominal pain, subjects (%) (600 mg oral): (10%)
- TEAE bowel sounds abnormal, subjects (%) (600 mg oral): (10%)
- TEAE dizziness, subjects (%) (600 mg oral): (20%)
- TEAE dysgeusia, subjects (%) (600 mg oral): (10%)
- TEAE euphoric mood, subjects (%) (600 mg oral): (10%)
- TEAE fatigue, subjects (%) (600 mg oral): (20%)
- TEAE feeling hot, subjects (%) (600 mg oral): (30%)
- TEAE headache, events (E) (600 mg oral): 3
- TEAE headache, subjects (%) (600 mg oral): (20%)
- TEAE nausea, subjects (%) (600 mg oral): (10%)
- TEAE paraesthesia, subjects (%) (600 mg oral): (50%)
- TEAE perineal pain, subjects (%) (600 mg oral): (10%)
- TEAE pharyngolaryngeal pain, subjects (%) (600 mg oral): (10%)
- TEAE phlebitis superficial, subjects (%) (600 mg oral): (10%)
- TEAE proctalgia, subjects (%) (600 mg oral): (10%)
- TEAE somnolence, subjects (%) (600 mg oral): 50%
- TEAE TOTAL, subjects (%) [2]: (90%)
- TEAE somnolence, subjects (%) [2]: (50%)
- DSST mean change from baseline (600 mg): −5
- BIS score range (1,000 mg): 70-98%
- TEAE CARDIAC DISORDERS, subjects (%) (1000 mg oral): (10%)
- TEAE GASTROINTESTINAL DISORDERS, subjects (%) (1000 mg oral): (40%)
- TEAE GENERAL DISORDERS AND ADMINISTRATION SITE CONDITIONS, subjects (%) (1000 mg oral): (30%)
- TEAE NERVOUS SYSTEM DISORDERS, events (E) (1000 mg oral): 14
- TEAE NERVOUS SYSTEM DISORDERS, subjects (%) (1000 mg oral): (70%)
- TEAE REPRODUCTIVE SYSTEM AND BREAST DISORDERS, subjects (%) (1000 mg oral): (10%)
- TEAE RESPIRATORY THORACIC AND MEDIASTINAL DISORDERS, subjects (%) (1000 mg oral): (10%)
- TEAE TOTAL, events (E) (1000 mg oral): 28
- TEAE TOTAL, subjects (%) (1000 mg oral): 80%
- TEAE VASCULAR DISORDERS, events (E) (1000 mg oral): 4
- TEAE VASCULAR DISORDERS, subjects (%) (1000 mg oral): (30%)
- TEAE dysphagia, subjects (%) (1000 mg oral): (10%)
- TEAE fatigue, subjects (%) (1000 mg oral): (10%)
- TEAE feeling hot, subjects (%) (1000 mg oral): (20%)
- TEAE headache, subjects (%) (1000 mg oral): (20%)
- TEAE nausea, subjects (%) (1000 mg oral): (30%)
- TEAE palpitations, subjects (%) (1000 mg oral): (10%)
- TEAE paraesthesia oral, subjects (%) (1000 mg oral): (10%)
- TEAE paraesthesia, events (E) (1000 mg oral): 7
- TEAE paraesthesia, subjects (%) (1000 mg oral): (60%)
- TEAE perineal pain, subjects (%) (1000 mg oral): (10%)
- TEAE phlebitis superficial, events (E) (1000 mg oral): 4
- TEAE phlebitis superficial, subjects (%) (1000 mg oral): (30%)
- TEAE somnolence, subjects (%) (1000 mg oral): 40%
- TEAE throat irritation, subjects (%) (1000 mg oral): (10%)
- subjects with somnolence considered severe (1000 mg oral): 1
- TEAE TOTAL, subjects (%) [3]: (80%)
- TEAE somnolence, subjects (%) [3]: (40%)
- DSST mean change from baseline (1,000 mg): −11
- lowest Modified OAA/S score (1,000 mg, Subject 003, 1 and 1.5 h after treatment): 3
- BIS score range (1,200 mg): 70-98%
- TEAE GASTROINTESTINAL DISORDERS, subjects (%) (1200 mg oral): (30%)
- TEAE GENERAL DISORDERS AND ADMINISTRATION SITE CONDITIONS, events (E) (1200 mg oral): 6
- TEAE GENERAL DISORDERS AND ADMINISTRATION SITE CONDITIONS, subjects (%) (1200 mg oral): (30%)
- TEAE INFECTIONS AND INFESTATIONS, subjects (%) (1200 mg oral): (14%)
- TEAE NERVOUS SYSTEM DISORDERS, events (E) (1200 mg oral): 13
- TEAE NERVOUS SYSTEM DISORDERS, subjects (%) (1200 mg oral): (90%)
- TEAE PSYCHIATRIC DISORDERS, subjects (%) (1200 mg oral): (10%)
- TEAE REPRODUCTIVE SYSTEM AND BREAST DISORDERS, subjects (%) (1200 mg oral): (10%)
- TEAE RESPIRATORY THORACIC AND MEDIASTINAL DISORDERS, subjects (%) (1200 mg oral): (10%)
- TEAE TOTAL, events (E) (1200 mg oral): 26
- TEAE TOTAL, subjects (%) (1200 mg oral): 90%
- TEAE VASCULAR DISORDERS, subjects (%) (1200 mg oral): (10%)
- TEAE defecation urgency, subjects (%) (1200 mg oral): (10%)
- TEAE dyspnoea, subjects (%) (1200 mg oral): (10%)
- TEAE euphoric mood, subjects (%) (1200 mg oral): (10%)
- TEAE fatigue, subjects (%) (1200 mg oral): (10%)
- TEAE feeling hot, events (E) (1200 mg oral): 4
- TEAE feeling hot, subjects (%) (1200 mg oral): (30%)
- TEAE headache, subjects (%) (1200 mg oral): (10%)
- TEAE nausea, subjects (%) (1200 mg oral): (20%)
- TEAE paraesthesia oral, subjects (%) (1200 mg oral): (10%)
- TEAE paraesthesia, subjects (%) (1200 mg oral): (30%)
- TEAE perineal pain, subjects (%) (1200 mg oral): (10%)
- TEAE somnolence, subjects (%) (1200 mg oral): 80%
- TEAE vein pain, subjects (%) (1200 mg oral): (10%)
- subjects with somnolence considered severe (1200 mg oral): 1
- TEAE TOTAL, subjects (%) [4]: (90%)
- TEAE somnolence, subjects (%) [4]: (80%)
- subjects with Modified OAA/S score of 4 (1,200 mg, 1.5-h time point): 40%
- DSST mean change from baseline (1,200 mg): −13
- laboratory values, vital signs, ECGs, physical examinations (200-1,200 mg oral): no changes
- serious adverse events (200-1,200 mg oral): No subject experienced a SAE
- severity of most TEAEs (Study 2): mild or moderate
- nausea, rate of occurrence (Study 2, all treatments): 50%
- paresthesia, rate of occurrence (Study 2, all treatments): 60%
- phlebitis superficial, rate of occurrence (Study 2, all treatments): 50%
- mean BIS scores (all time points, all treatments): > 90%
- subjects with Modified OAA/S score of 5 (at most time points, each treatment group): ≥ 80%
